Key:
[1] = Solubility of abiraterone acetate in fatty acids; conditions: 25° C.
[2] = Solubility of abiraterone acetate in surfactants
[3] = Solubility of abiraterone acetate in co-solvents
[4] = Solubility of abiraterone acetate in lipids (glycerides); conditions: 25° C.
[5] = cited from earlier work
[6] = Solubility of abiraterone acetate in aqueous media
[7] = cited from earlier work; remark: listed apart in the source
[8] = Solubility of abiraterone acetate in other media

CC(=O)O[C@H]1CC[C@@]2(C)C(=CC[C@@H]3[C@@H]2CC[C@]2(C)C(c4cccnc4)=CC[C@@H]32)C1 [Abiraterone acetate]
Solubility ([1]; Acetic acid): 2386.1 mg/mL
Solubility ([1]; Butyric acid): 1399.3 mg/mL
Solubility ([1]; Heptanoic acid): 1325.9 mg/mL
Solubility ([1]; Linoleic acid): 182.9 mg/mL
Solubility ([1]; Nonanoic acid): 1084.1 mg/mL
Solubility ([1]; Oleic acid): 239.0 mg/mL
Solubility ([1]; Propionic acid): 2209.5 mg/mL
Solubility ([1]; Valeric acid): 1104.8 mg/mL
Solubility ([1]; n-caproic acid): 1572.6 mg/mL
Solubility ([1]; n-caprylic acid): 1214.7 mg/mL
Solubility ([2]; Labrasol, 25° C.): 35.4 mg/mL
Solubility ([2]; Polyethylene Glycol Oleate, 25° C.): 52.7 mg/mL
Solubility ([2]; Polyoxyethylene 8 stearate, 25° C.): 18.1 mg/mL
Solubility ([2]; Polyoxyethylene hydrogenated castor oil, 25° C.): 10.1 mg/mL
Solubility ([2]; Tween 80, 25° C.): 7.5 mg/mL
Solubility ([3]; Ethanol, 25° C.): 61.1 mg/mL
Solubility ([3]; Glycerol, 25° C.): 5.0 mg/mL
Solubility ([3]; PEG400, 25° C.): 16.5 mg/mL
Solubility ([3]; Propylene glycol, 25° C.): 5.0 mg/mL
Solubility ([3]; Transcutol, 25° C.): 99.5 mg/mL
Solubility ([4]; Capryl monoglyceride): 139.8 mg/mL
Solubility ([4]; Castor oil): 59.6 mg/mL
Solubility ([4]; Coconut oil): 30.6 mg/mL
Solubility ([4]; Corn oil): 31.4 mg/mL
Solubility ([4]; Glycerol mono/di-caprylocaprate): 147.0 mg/mL
Solubility ([4]; Glyceryl monooleate): 37.1 mg/mL
Solubility ([4]; Isopropyl myristate): 41.0 mg/mL
Solubility ([4]; Olive oil): 27.3 mg/mL
Solubility ([4]; Polyglycerol fatty acid ester): 10.0 mg/mL
Solubility ([4]; Propylene Glycol Monocaprylate): 160.0 mg/mL
Solubility ([4]; Soybean oil): 28.1 mg/mL
solubility in water [5]: practically insoluble in water
Solubility ([6]; FDA Dissolution medium: 0.25% SLS in 56.5 mM phosphate buffer, pH 4.5, 25° C.): 0.7 mg/mL
Solubility ([6]; pH 3.0 buffer, 25° C.): <0.001 mg/mL
Solubility ([6]; pH 4.0 buffer, 25° C.): <0.001 mg/mL
Solubility ([6]; pH 5.0 buffer, 25° C.): <0.001 mg/mL
Solubility ([6]; pH 6.0 buffer, 25° C.): <0.001 mg/mL
Solubility ([6]; pH 7.4 buffer, 25° C.): <0.001 mg/mL
Log P [7]: 5.12
Solubility ([8]; 1-octanol, 25° C.): 114.0 mg/mL
Solubility ([8]; Azone (Laurocapram), 25° C.): 66.0 mg/mL
Solubility ([8]; Capryl monoglyceride, 25° C. (Table 11)): 139.8 mg/mL
Solubility ([8]; Glycerol mono/di-caprylocaprate, 25° C. (Table 11)): 147.0 mg/mL
Solubility ([8]; Glyceryl monooleate, 25° C. (Table 11)): 37.1 mg/mL
Solubility ([8]; Isopropyl myristate, 25° C. (Table 11)): 41.0 mg/mL
Solubility ([8]; Polyglycerol fatty acid ester, 25° C. (Table 11)): 10.0 mg/mL
Solubility ([8]; Propylene Glycol Monocaprylate, 25° C. (Table 11)): 160.0 mg/mL
